{"source": "patent US20230075422A1", "about": "“USE OF FUCOSYLATION INHIBITOR FOR PRODUCING AFUCOSYLATED ANTIBODY” (BRISTOL-MYERS SQUIBB COMPANY, priority 2019, published 2023)", "assay_type_in_all_cases": "cell-based", "key": {"[1]": {"system": "fucosylation of antibodies", "assay": "Percentage of nonfucosylated antibodies for antibodies grown in the presence of fucosylation inhibitors (FIG. 2A)", "details": "antibodies grown in presence of inhibitor at 1 mM to 6 mM", "description": "The level of fucosylation in an antibody preparation may be determined by any method known in the art, including but not limited to gel electrophoresis, liquid chromatography, and mass spectrometry. Unless otherwise indicated, for the purposes of the present invention, the level of fucosylation in an antibody preparation is determined by hydrophilic interaction chromatography (or hydrophilic interaction liquid chromatography, HILIC), essentially as described at Example 2. To determine the level of fucosylation of an antibody preparation, samples are denatured treated with PNGase F to cleave N-linked glycans, which are then analyzed for fucose content. LC/MS of full-length antibody chains is an alternative method to detect the level of fucosylation of an antibody preparation, but mass spectroscopy is inherently less quantitative.\nNonfucosylated antibody preparations may be analyzed to determine the percentage of afucosylated heavy chains essentially as follows.\nAntibodies are first denatured using urea and then reduced using DTT (dithiothreitol). Samples are then digested overnight at 37° C. with PNGase F to remove N-linked glycans. […] The resulting labeled glycans are then resolved on a HILIC column and the eluted fractions are quantified by fluorescence and dried. […] Untreated samples and BKF-treated samples are then analyzed by liquid chromatography. […]"}, "[2]": {"system": "antibody production cell line", "assay": "Antibody titers of the same antibody preparations (FIG. 2B)", "details": "same preparations as FIG. 2A, inhibitor 1 mM to 6 mM, compared with GDP-D-rhamnose"}, "[3]": {"system": "fucosylation of antibodies", "assay": "Electropherograms of antibody preparations, glycoform peaks (FIGS. 3A-3C)", "details": "cells cultured with 6 mM or 10 mM inhibitor vs no inhibitor", "description": "FIGS. 3A, 3B and 3C show electropherograms of antibody preparations made using cells cultured without a fucosylation inhibitor or in the presence of 6 mM or 10 mM Ac-GDP-D-rhamnose, respectively. Peaks for different glycoforms are indicated, with white boxes for fucosylated species and dark boxes for nonfucosylated species."}}, "data": [{"compound": "Ac-GDP-D-rhamnose", "values": [{"measurement": "percentage of nonfucosylated antibodies", "setting": "[1]", "value": "as effective as GDP-D-rhamnose"}, {"measurement": "antibody titer (yield)", "setting": "[2]", "value": "less deleterious effect on titer"}, {"measurement": "proportion of nonfucosylated species (glycoforms)", "setting": "[3]", "value": "increase the proportion of nonfucosylated species"}]}, {"compound": "C[C@H]1O[C@H](OP(=O)(O)OP(=O)(O)OC[C@H]2O[C@@H](n3cnc4c(=O)[nH]c(N)nc43)[C@H](O)[C@@H]2O)[C@@H](O)[C@@H](O)[C@@H]1O", "note": "[GDP-D-rhamnose]", "values": [{"measurement": "percentage of nonfucosylated antibodies", "setting": "[1]", "value": "increasing the percentage of nonfucosylated antibodies"}]}]}
